This is an account of results in US20070299029A1, “Hepatic stellate cell specific promoter and uses thereof” (Agency for Science, Technology and Research, priority 2005, published 2007).

The test system of series [1] is GFAP-lacZ expression in T6/lacZ/C1 cells. The series can be described thus: X-gal staining of T6/lacZ/C1 cells treated with TGF-β1, PDGF-BB and LPS. In kind it is cell-based, rat. Particulars: 0.1 to 10 ng/ml, full DMEM, 72 hours, X-gal one hour. The procedure:
A lacZ reporter assay kit for cell staining (InvivoGen, CA, USA) was used to detect the reporter gene activity in both stable and transient transfectants. Development of the blue end product was monitored at different time intervals (15, 30, 60, 90, and 120 minutes). The staining results were documented with a digital camera (DP12) attached to an Olympus inverted bright field microscope (IX51).
To determine possible induction of GFAP-lacZ expression by molecules with pro-fibrotic and proinflammatory properties in activated HSC the T6/lacZ/C1 cells were treated with TGF-β1, PDGF-BB and LPS respectively at various concentrations (0, 0.1, 1 and 10 ng/ml) in the full DMEM medium for 72 hours. The cells were then stained with X-gal for one hour and photographed. […] In order to obtain truly quantitative data, a solution assay was employed to measure possible up-regulation of β-galactosidase activity by TGF-β1 in experiments below.

Series [2] has as its system 2.2 kb hGFAP-lacZ transgene in T6/lacZ/C1 cells. The series can be described thus: quantitative solution assay of β-galactosidase activity in T6/lacZ/C1 cells. In kind it is cell-based, rat. The protocol: To quantify the β-galactosidase activity in cell extracts reported in FIGS. 4 to 10, an enzyme assay kit (E2000, Promega, Wis., USA) was used to measure the specific activity of P-galactosidase, according to the manufacturer's instructions in a 96-well format. Briefly, the cells were washed twice with 1×PBS buffer (pH7.4), lysed for 15 minutes at room temperature with the reporter lysis buffer, and harvested using a cell scraper. The total cell extracts were appropriately diluted (5-10 fold), and assayed for the enzyme activity. The specific β-galactosidase activity was expressed in milliunit per milliliter (mU/ml) using a standard curve established from the β-galactosidase standard (provided with the kit). The protein concentration was measured with a BCA protein assay kit (Pierce, Ill., USA), and used to further convert the specific β-galactosidase activity from mU/ml to mU/μg total cellular protein. Six independent experiments were performed for each time and concentration data point.
(§1) Cells were seeded into 12-well plates in full DMEM and 500 μg/ml Zeocin. Twelve hours prior to the cytokine treatment, medium was changed so that the cells were allowed to grow in low serum (0.5% FBS) DMEM. The cells at a confluence of 70-80% were incubated with various concentrations (0, 0.1, 1 and 10 ng/ml) of recombinant human TGF-β1, PDGF-BB (BioVision, CA, USA) and 0, 0.1, 1 and 10 μg/ml lipopolysaccharide (LPS E. coli, Sigma) respectively for 0, 2, 8, 16, 24, 48 and 72 hours before they were harvested for β-galactosidase activity assay and real-time RT-PCR GFAP assay.
To quantify specific transgene response to TGF-β1, we first set up an experiment to assess possible effects that serum concentration and culture duration may have on the transgene expression. T6/lacZ/C1 cells were initially grown in DMEM with high serum (10% FBS), and then some of the cells were starved with a DMEM with low serum (0.5% FBS) for 12 hours prior to the addition of TGF-β1 (1 ng/ml). After incubation for various times (0, 2, 8, 24, 48 and 72 hours), cells were harvested for β-galactosidase activity assay. […] After 72 hours, the level slipped to 58% of the value at 0 hour (P<0.001). The assay results were depicted in FIG. 8.
To further dissect the TGF-β1 contribution to the transgene induction, we treated T6/lacZ/C1 cells grown in low serum with various concentrations of TGF-β1 (0, 0.1, 1, 10 ng/ml) and assayed the enzymatic activity for three time points (24, 48 and 72 hours). The assay results were plotted in FIG. 9. […] When the non-treatment groups were normalized to 1 and the magnitude of induction were plotted for the 10 ng/ml treatment groups at all three time points (FIG. 10), a trend of increasing induction with time was apparent.

A further series deals with endogenous rat GFAP mRNA. As to the kind of experiment: real-time RT-PCR for endogenous rat GFAP mRNA in T6/lacZ/C1 cells. In kind it is cell-based. The procedure: as §1
Total RNA was reverse transcribed to cDNA using Taqman's reverse transcription reagent (Cat. #N8O8-0234A total of 400 ng of RNA in 7.7 μl nuclease-free water was added to 2 μl 10× reverse transcriptase buffer, 4.4 μl 25 mM magnesium chloride, 4 μl deoxyNTP mixtures, 1 μl random hexamers, 0.4 μl RNase inhibitor and 0.5 μl reverse transcriptase (50 U/μl) in a final reaction volume of 20 μl. The reaction was performed for 10 min at 25° C. (annealing), 30 min at 48° C. (cDNA synthesis) and 5 min at 95° C. (enzyme denaturation).
Real-time quantitative PCR was carried out with an ABI 7500 Real Time PCR System (Applied Biosystems, CA, USA). One microliter of sample cDNA was used in each PCR reaction, with the housekeeping β-actin gene as a reference for normalization. The primers and probes for rat β-actin and GFAP were purchased from Taqman's assay-on-demand database. […]
Relative quantitation of the target mRNA was calculated using the comparative threshold cycle (CT) methods as described in the User Bulletin #2 (ABI Prism 7700 Sequence Detection System). CT indicates the fractional cycle number at which the amount of amplified target reaches a fixed threshold within the linear phase of gene amplification. ΔCT, which reflects the difference between CT target and CT β-actin, is inversely correlated to the abundance of mRNA transcripts in the samples. ΔCT for each sample was normalized against control experiment or calibrator and expressed as ΔΔCT. Relative quantitation is given by 2^−ΔΔCT to express the up-regulation or down regulation of the target gene under the treatments compared to the control. Six independent experiments were performed for each data point and three ACT were measured for each experiment.
It was known that GFAP, along with desmin, SMAA, and vimentin, was expressed in the clonal T6 cells (Vogel et al. (2000), J Lipid Res. 41(6):882). […] In order to investigate how the endogenous GFAP expression is regulated by TGF-β1 in the T6/lacZ/C1 cells during different time course, we quantified rat GFAP mRNA level using a real-time RT-PCR method. […] Total RNA was isolated from different cells and quantified as described in Materials and Methods, and the results were depicted in FIG. 11.
A general note: In qPCR the cycle at which signal appears reflects the starting amount.

Where [3] appears, read: 10 ng/ml TGF-β1, low serum, 72 hours.

Turning to “TGF-β1: recombinant human transforming growth factor-β1, pro-fibrotic cytokine (BioVision)”, the “X-gal blue staining compared to the untreated” value in series [1] was “more intense blue staining”. The “specific β-galactosidase activity” value in series [2] (1 ng/ml TGF-β1, 0.5% FBS, 24 hour (peak)) is reported as 0.52 mU/μg. Further, in series [2] (1 ng/ml TGF-β1, 0.5% FBS, 48 hours), the “transgene expression level relative to 0 hour” value is recorded as “dropped to the same level as at 0 hour”. In addition, in series [2] (1 ng/ml TGF-β1, 0.5% FBS, 72 hours), the “transgene expression level, % of the value at 0 hour” value came to 58%. The “induction of β-galactosidase activity” value in series [2] (10 ng/ml TGF-β1, low serum, 24, 48 and 72 hours) is reported as “Significant induction”. Also, the “absolute enzymatic (β-galactosidase) activity” value in series [2] (setting [3]) is reported as 0.43 mU/μg. Further, the “magnitude of induction of β-galactosidase activity vs non-treatment group (normalized to 1)” value in series [2] (setting [3]) is recorded as “nearly two fold”. The “GFAP mRNA level relative to basal level at 0 hour (normalized to 1)” value in the series on endogenous rat GFAP mRNA (1 ng/ml TGF-β1, 16 hour) is listed as 0.5 fold; in the series on endogenous rat GFAP mRNA (1 ng/ml TGF-β1, 48 hours), 7 fold; in the series with endogenous rat GFAP mRNA (1 ng/ml TGF-β1, 72 hours), 8.5 fold. For the same substance, in the series on endogenous rat GFAP mRNA (1 ng/ml TGF-β1, within the first 24 hours (except 16 hour)), the “GFAP mRNA level relative to basal level” value is reported as “remained steady”.
